ChEMBL document CHEMBL1121607, “A novel opioid receptor site directed alkylating agent with irreversible narcotic antagonistic and reversible agonistic activities” (J Med Chem, 1980)
pIC50: −log10 of the molar value.

species: Cavia porcellus; assay: Tested for potent reversible agonist activity on electrically stimulated guinea pig ileal longitudinal muscle preparation; type: functional, organism-based; settings: Muscle tissue

Row | SMILES | pIC50
1 | COC(=O)/C=C/C(=O)N[C@@H]1CC[C@@]2(O)[C@H]3Cc4ccc(O)c5c4[C@@]2(CCN3CC2CC2)[C@H]1O5 | 8.32
2 | O=C1CC[C@@]2(O)[C@H]3Cc4ccc(O)c5c4[C@@]2(CCN3CC2CC2)[C@H]1O5 [NALTREXONE] | 7.30
3 | COC(=O)/C=C/C(=O)N[C@@H]1CC[C@@]2(O)C3Cc4ccc(O)c5c4C2(CCN3C)[C@H]1O5 (stereo partly drawn) | 7.57
